# Data: patent publication US12344603B2 (Genentech, Inc., priority 2020, dated 2025)
# Structures can show the parent of a compound that is named as a salt.
# Target: IRE1α (Homo sapiens (Human), UniProt O75460, D688N)
# Assay: IRE1α TR-FRET competition binding assay (IRE1α HTRF)
# Conditions: TR-FRET competition binding to kinase domain of IRE1α
# In short: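 Competition of compounds against an Alexa fluor 647 ATP-site probe (2 nM final) for the His-tagged kinase domain (0.25 nM final), detected via 2 nM Eu anti-His antibody by TR-FRET, 665 and 615 nm emission. Protein–antibody premix 1 h, 4° C; reaction 1 h, room temperature, pH 7.5 HEPES buffer.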
# IRE1α, sequence (O75460 547-977 D688N): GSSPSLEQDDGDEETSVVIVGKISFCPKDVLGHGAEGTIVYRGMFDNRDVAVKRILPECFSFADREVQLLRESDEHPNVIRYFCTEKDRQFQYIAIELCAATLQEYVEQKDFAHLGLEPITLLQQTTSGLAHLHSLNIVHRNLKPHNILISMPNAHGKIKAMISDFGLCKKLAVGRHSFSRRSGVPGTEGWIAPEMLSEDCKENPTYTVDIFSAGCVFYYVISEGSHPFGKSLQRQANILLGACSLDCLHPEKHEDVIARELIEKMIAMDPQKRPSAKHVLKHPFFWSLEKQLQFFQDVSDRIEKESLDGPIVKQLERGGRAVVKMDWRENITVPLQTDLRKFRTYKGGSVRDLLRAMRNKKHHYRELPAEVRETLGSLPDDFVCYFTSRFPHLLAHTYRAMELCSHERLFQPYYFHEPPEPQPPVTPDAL
row,SMILES,IC50 [nM]
1,"CC(C)n1c(=O)c(-c2ccc(NS(=O)(=O)N3CCCCC3)c(F)c2)nc2cnc(N[C@@H]3CNC[C@@H](F)C3)nc21 [Compound 162, N-(2-Fluoro-4-(2-(((3S,5S)-5-fluoropiperidin-3-yl)amino)-8-isopropyl-7-oxo-7,8-dihydropteridin-6-yl)phenyl)piperidine-1-sulfonamide]",1.3
2,"Cc1cc(NS(=O)(=O)CCC(F)(F)F)ncc1-c1nc2cnc(N[C@H]3CC[C@H](N(C)C)CC3)nc2n(C(C)C)c1=O [Compound 186, N-(5-(2-(((1r,4r)-4-(Dimethylamino)cyclohexyl)amino)-8-isopropyl-7-oxo-7,8-dihydropteridin-6-yl)-4-methylpyridin-2-yl)-3,3,3-trifluoropropane-1-sulfonamide]",0.95
3,"CC(C)n1c(=O)c(-c2ccc(NS(=O)(=O)CC34CCC(CC3)C4)c(F)c2)nc2cnc(N[C@H]3CC[C@H](N(C)C)CC3)nc21 [Example 270, N-[4-[2-[[4-(Dimethylamino)cyclohexyl]amino]-8-isopropyl-7-oxo-pteridin-6-yl]-2-fluoro-phenyl]-1-norbornan-1-yl-methanesulfonamide]",0.3
4,"CC(C)n1c(=O)c(-c2ccc(NS(=O)(=O)Cc3ccc(F)cc3)c(F)c2)cc2cnc(N[C@H]3CC[C@H](N(C)CCF)CC3)nc21 [Compound 155, N-(2-Fluoro-4-(2-(((1r,4r)-4-((2-fluoroethyl)(methyl)amino)cyclohexyl)amino)-8-isopropyl-7-oxo-7,8-dihydropyrido[2,3-d]pyrimidin-6-yl)phenyl)-1-(4-fluorophenyl)methanesulfonamide]",0.23
5,"CC(C)n1c(=O)c(-c2ccc(NS(=O)(=O)CC3CCCCC3)c(F)c2)cc2cnc(N[C@H]3CC[C@H](N(C)C)CC3)nc21 [Compound 115, 1-Cyclohexyl-N-(4-(2-(((1r,4r)-4-(dimethylamino)cyclohexyl)amino)-8-isopropyl-7-oxo-7,8-dihydropyrido[2,3-d]pyrimidin-6-yl)-2-fluorophenyl)methanesulfonamide]",0.15
6,"COCCN(CCOC)[C@H]1CC[C@H](Nc2ncc3cc(-c4ccc(NS(=O)(=O)CCC(F)(F)F)c(F)c4)c(=O)n(C(C)C)c3n2)CC1 [Compound 210, N-(4-(2-(((1,4-trans)-4-(Bis(2-methoxyethyl)amino)cyclohexyl)amino)-8-isopropyl-7-oxo-7,8-dihydropyrido[2,3-d]pyrimidin-6-yl)-2-fluorophenyl)-3,3,3-trifluoropropane-1-sulfonamide]",0.25
7,"COCCN(C)[C@H]1CC[C@H](Nc2ncc3cc(-c4ccc(NS(=O)(=O)Cc5ccccc5)c(F)c4)c(=O)n(C(C)C)c3n2)CC1 [Compound 124, N-(2-Fluoro-4-(8-isopropyl-2-(((1r,4r)-4-((2-methoxyethyl)(methyl)amino)cyclohexyl)amino)-7-oxo-7,8-dihydropyrido[2,3-d]pyrimidin-6-yl)phenyl)-1-phenylmethanesulfonamide hydrochloride]",0.12
8,"COCCN(C)[C@H]1CC[C@H](Nc2ncc3cc(-c4ccc(NS(=O)(=O)CCC(F)(F)F)c(F)c4)c(=O)n(C(C)C)c3n2)CC1 [Compound 138, 3,3,3-Trifluoro-N-(2-fluoro-4-(8-isopropyl-2-(((1r,4r)-4-((2-methoxyethyl)(methyl)amino)cyclohexyl)amino)-7-oxo-7,8-dihydropyrido[2,3-d]pyrimidin-6-yl)phenyl)propane-1-sulfonamide]",0.19
9,"O=c1c(-c2ccc(NS(=O)(=O)Cc3ccccc3)c(F)c2F)cc2cnc(N[C@@H]3CNC[C@@H](F)C3)nc2n1CC(F)(F)F [Compound 40, N-(2,3-Difluoro-4-(2-(((3S,5S)-5-fluoropiperidin-3-yl)amino)-7-oxo-8-(2,2,2-trifluoroethyl)-7,8-dihydropyrido[2,3-d]pyrimidin-6-yl)phenyl)-1-phenylmethanesulfonamide]",1.7
10,"CC(C)n1c(=O)c(-c2cc(F)c(NS(=O)(=O)Cc3cccc(C#N)c3)c(F)c2F)cc2cnc(N[C@@H]3CNC[C@@H](F)C3)nc21 [Compound 30, 1-(3-Cyanophenyl)-N-(2,3,6-trifluoro-4-(2-(((3S,5S)-5-fluoropiperidin-3-yl)amino)-8-isopropyl-7-oxo-7,8-dihydropyrido[2,3-d]pyrimidin-6-yl)phenyl)methanesulfonamide]",0.21
11,"CC(C)n1c(=O)c(-c2ccc(NS(=O)(=O)Cc3ccccc3F)cn2)cc2cnc(N[C@H]3CC[C@H](N(C)C)CC3)nc21 [Compound 94, N-(6-(2-(((1r,4r)-4-(Dimethylamino)cyclohexyl)amino)-8-isopropyl-7-oxo-7,8-dihydropyrido[2,3-d]pyrimidin-6-yl)pyridin-3-yl)-1-(2-fluorophenyl)methanesulfonamide]",0.27
12,"CC(C)n1c(=O)c(-c2cc(F)c(NCC(O)C(F)(F)F)c(F)c2F)cc2cnc(N[C@H]3CC[C@H](N(C)C)CC3)nc21 (some centres unmarked) [Compound 99, 2-(((1r,4r)-4-(Dimethylamino)cyclohexyl)amino)-8-isopropyl-6-(2,3,5-trifluoro-4-((3,3,3-trifluoro-2-hydroxypropyl)amino)phenyl)pyrido[2,3-d]pyrimidin-7(8H)-one]",46
13,"CC(C)n1c(=O)c(-c2ccc(NS(=O)(=O)CCC(F)(F)F)c(F)c2)nc2cnc(N[C@@H]3CC[C@@H](N(C)C)[C@H](F)C3)nc21 (stereo in doubt) [Compound 179B, N-(4-(2-((4-(Dimethylamino)-3-fluorocyclohexyl)amino)-8-isopropyl-7-oxo-7,8-dihydropteridin-6-yl)-2-fluorophenyl)-3,3,3-trifluoropropane-1-sulfonamide]",0.15
14,"CC(C)n1c(=O)c(-c2ccc(NS(=O)(=O)CCC(F)(F)F)c(F)c2)cc2cnc(N[C@H]3CC[C@H](N4CCC4)CC3)nc21 [Compound 198, N-(4-(2-(((1,4-trans)-4-(Azetidin-1-yl)cyclohexyl)amino)-8-isopropyl-7-oxo-7,8-dihydropyrido[2,3-d]pyrimidin-6-yl)-2-fluorophenyl)-3,3,3-trifluoropropane-1-sulfonamide formate]",0.41
15,"CC(C)n1c(=O)c(-c2ccc(NS(=O)(=O)CC3CC(F)(F)C3)c(F)c2)cc2cnc(N[C@H]3CC[C@H](N(C)C)CC3)nc21 [Compound 151, 1-(3,3-Difluorocyclobutyl)-N-(4-(2-(((1r,4r)-4-(dimethylamino)cyclohexyl)amino)-8-isopropyl-7-oxo-7,8-dihydropyrido[2,3-d]pyrimidin-6-yl)-2-fluorophenyl)methanesulfonamide]",0.19
16,"CC(C)n1c(=O)c(-c2ccc(NS(=O)(=O)CCC(F)(F)F)c(F)c2)nc2cnc(N[C@H]3CC[C@H](N(C)C)CC3)nc21 [Compound 67, N-(4-(2-(((1r,4r)-4-(Dimethylamino)cyclohexyl)amino)-8-isopropyl-7-oxo-7,8-dihydropteridin-6-yl)-2-fluorophenyl)-3,3,3-trifluoropropane-1-sulfonamide]",0.18
17,"CC(C)n1c(=O)c(-c2cc(F)c(NC(=O)[C@H]3C[C@H]3F)c(F)c2F)cc2cnc(N[C@H]3CC[C@H](N(C)C)CC3)nc21 [Compound 63, (1R,2R)—N-(4-(2-(((1r,4r)-4-(Dimethylamino)cyclohexyl)amino)-8-isopropyl-7-oxo-7,8-dihydropyrido[2,3-d]pyrimidin-6-yl)-2,3,6-trifluorophenyl)-2-fluorocyclopropane-1-carboxamide hydrochloride]",4.1
18,"CC(C)n1c(=O)c(-c2ccc(NS(=O)(=O)CCC(F)(F)F)c(F)c2)cc2cnc(N[C@H]3CC[C@H](N(C)CC4COC4)CC3)nc21 [Compound 204, 3,3,3-Trifluoro-N-(2-fluoro-4-(8-isopropyl-2-(((1,4-trans)-4-(methyl(oxetan-3-ylmethyl)amino)cyclohexyl)amino)-7-oxo-7,8-dihydropyrido[2,3-d]pyrimidin-6-yl)phenyl)propane-1-sulfonamide]",1
19,"CC(C)n1c(=O)c(-c2cc(F)c(NS(=O)(=O)Cc3ccc(F)cc3)c(F)c2F)nc2cnc(N[C@@H]3CNC[C@@H](F)C3)nc21 [Compound 171, 1-(4-Fluorophenyl)-N-(2,3,6-trifluoro-4-(2-(((3S,5S)-5-fluoropiperidin-3-yl)amino)-8-isopropyl-7-oxo-7,8-dihydropteridin-6-yl)phenyl)methanesulfonamide hydrochloride]",0.12
20,"CC(C)n1c(=O)c(-c2ccc(NS(=O)(=O)N3CCCC3)c(F)c2)nc2cnc(N[C@@H]3CNC[C@@H](F)C3)nc21 [Compound 163, N-(2-Fluoro-4-(2-(((3S,5S)-5-fluoropiperidin-3-yl)amino)-8-isopropyl-7-oxo-7,8-dihydropteridin-6-yl)phenyl)pyrrolidine-1-sulfonamide]",0.97
21,"CC(C)n1c(=O)c(-c2cnc(NS(=O)(=O)CCC(F)(F)F)c(F)c2)cc2cnc(N[C@H]3CC[C@H](N(C)C)CC3)nc21 [Example 222, N-(5-(2-(((1r,4r)-4-(dimethylamino)cyclo-hexyl)amino)-8-isopropyl-7-oxo-7,8-dihydropyrido[2,3-d]-pyrimidin-6-yl)-3-fluoropyridin-2-yl)-3,3,3-trifluoropropane-1-sulfonamide]",0.3
22,"CCn1c(=O)c(-c2cc(F)c(NS(=O)(=O)Cc3ccccn3)c(F)c2F)cc2cnc(N[C@@H]3CNC[C@@H](F)C3)nc21 [Compound 49, N-(4-(8-ethyl-2-(((3S,5S)-5-fluoropiperidin-3-yl)amino)-7-oxo-7,8-dihydropyrido[2,3-d]pyrimidin-6-yl)-2,3,6-trifluorophenyl)-1-(pyridin-2-yl)methanesulfonamide]",5
23,"COCCN(C)[C@H]1CC[C@H](Nc2ncc3cc(-c4ccc(NS(=O)(=O)CCC(F)(F)F)nc4)c(=O)n(C(C)C)c3n2)CC1 [Compound 126, 3,3,3-Trifluoro-N-(5-(8-isopropyl-2-(((1r,4r)-4-((2-methoxyethyl)(methyl)amino)cyclohexyl)amino)-7-oxo-7,8-dihydropyrido[2,3-d]pyrimidin-6-yl)pyridin-2-yl)propane-1-sulfonamide]",0.24
